According to patent US8772463B2, “Fluorescent dye-labeled glucose bioprobe, synthesis method and usage thereof” (SNU R&DB Foundation, priority 2007, dated 2014):

How the values were obtained:
NIH/3T3 cells = test: Cy3-Glc-α uptake in normal cells versus cancer cells, inverted fluorescent microscope; type: cell-based, murine
Procedure: (§1) 1×10^4 cells were cultured on a Lab-Tek glass chamber slide (Nalge Nunc International, Naperville, Ind., USA) in 35 mm cell culture dish. After 24 h, the cells were treated for each experimental purpose. Then, the medium was replaced with RPMI 1640 medium containing 12.5 μM of Cy3-Glc-α. The cells were exposed to Cy3-Glc-α for 40 min, then washed with PBS 3 times. Finally, the glass chamber slide was taken from culture dish and loaded on the fluorescence microscope (Axiovert 200, Carl Zeiss, Germany). Fluorescence images of 35-50 cells were taken by CCD camera (Axiocam MRm, Germany) and fluorescence intensity of each cell was measured by Axiovision (program for data analysis). An area as ROIs (regions of interest) which contains a cell in phase-contrast image was drawn using Axiovision. Axiovision analyzed CCD camera images and provided the digitized mean of fluorescence intensity in the ROIs that the present inventors had established. The present inventors subtracted the background intensity from the fluorescence intensity to get the fluorescence intensity value that a cell contained. With the method described above, the present inventors digitized fluorescence intensity and performed various experiments.
(2) Based on this observation, further studies in bioimaging and bioapplication were performed only with the α anomer as choice of the bioprobe. […]

A549 cells [1] = test: Probe uptake by A549 cells, inverted fluorescent microscope (α/β anomers, alanine, 2-NBDG comparison); type: cell-based, human
Procedure: as §1
To confirm the above hypothesis, real-time uptake of Cy3-Glc-α was measured, and the results were compared to those of Cy3-Glc-β by live imaging of A549 cells by using inverted fluorescent microscope. […] This led the present inventors to the conclusion that the stereochemistry at the C-1 anomeric position definitely influences the efficiency of mimicking glucose, and this might be due to the binding orientation of D-glucose in GLUTs [P. W. Hruz, M. M. Mueckler, Mole. Memb. Biol. 2001, 18, 183-193].
The cellular uptake of 2-NBDG was not detected under identical experimental conditions used for Cy3-Glc-α. […] To achieve the fluorescence intensity with 2-NBDG to 80% that of Cy3-Glc-α, a 10 fold increase in 2-NBDG concentration and a 20 fold increase in the lens exposure time in D-glucose-depleted medium were needed.
In addition, the cellular uptake of 2-NBDG in normal media (containing 10 mM D-glucose) was extremely low (>60% uptake reduction in normal media) and was hardly detected using fluorescent based imaging methods [R. G. O'Neil, L. Wu, N. Mullani, Mol. Imaging Biol. 2005, 7, 388-392]. 2-NBDG was detectable only in glucose-depleted media, and this means a critical limitation of bioapplication of 2-NBDG in the biologically significant environments. In comparison with 2-NBDG, the reduction of Cy3-Glc-α uptake in glucose-containing media was only 5% compared to that in glucose-depleted media (FIG. 18). Therefore, it was confirmed that Cy3-Glc-α was capable of being applied to a bioassay system regardless of glucose starvation.

A549 cells [2] = test: Cy3-Glc-α intracellular uptake efficiency, confocal laser scanning microscope (CLSM); type: cell-based, human; details: CLSM live-cell imaging
Procedure: 1×10^4 cells were cultured on a Lab-Tek glass chamber slide (Nalge Nunc International, Naperville, Ind., USA) in 35 mm cell culture dish. After 24 h, the glass chamber slide was taken from culture dish and loaded on chamber. Then, the chamber was attached to the microscope. The temperature of the chamber was maintained at 37° C. After injection of 12.5 μM of Cy3-Glc-α in RPMI 1640 in the chamber, the fluorescent image was taken every 60 sec, digitized, and saved on a computer for later analysis.
(1) To evaluate the applicability of the fluorescent glucose analogue (Cy3-Glc-α) of the present invention, finally obtained in Example 1, as a bioprobe, the intracellular uptake efficiency of Cy3-Glc-α was measured by using a confocal laser scanning microscope (CLSM).
(2) In addition, the experiment was performed by using the confocal laser scanning microscope to measure the optimum incubation time required to achieve the maximum uptake of the analogue Cy3-Glc-α.

C[N+]1=C(/C=C/C=C2/N(CCCCC(=O)NCCOCCOCCNCCOC3OC(CO)C(O)C(O)C3O)c3ccccc3C2(C)C)C(C)(C)c2ccccc21 [Cy3-Glc-α, [2-(N-Cy3-3,6-dioxaoctane-1,8-diaminoethyl)]-α-D-glucose]
Cy3-Glc-α uptake in NIH/3T3 relative to that of A549 cells (NIH/3T3 cells): 30%
uptake efficiency with or without alanine (osmotic pressure) (A549 cells [1]; 55 mM alanine in media): no difference in the uptake efficiency
reduction of uptake in glucose-containing media compared to glucose-depleted media (A549 cells [1]; A549 cells): 5%
uptake of Cy3-Glc-α superior to that of Cy3-Glc-β (A549 cells [1]; A549 cells, live imaging): 40%
incubation time to maximum uptake (A549 cells [2]): ≤ 35 min
